Measurements as given in patent US10407467B2, “Polymyxin derivatives and their use in combination therapy together with different antibiotics” (priority 2013, dated 2019).
Like-named read-outs stand apart in the source and are kept apart here. Marks after values point to notes of the source that are not given here. Bridge positions count the residues as written; N and C are the ends. Square brackets hold non-standard residues; d marks the D form. Peptide text beside a SMILES is read from it. * marks the point of attachment. ξ: configuration not given here. ξβ3hGly(cHex) = NC(CC(=O)*)C1CCCCC1; Thr(3ξ) = CC(O)[C@H](N)C(=O)O; Dab = NCC[C@H](N)C(=O)O

Experiments:
[1] = tested on: Klebsiella pneumoniae ATCC10031; conditions: 10 mg/kg/day, neutropenic mice thigh infection
[2] = rats, 8 mg/kg BID regimen, seven days, compared to Colistin at the same dose regimen
Method: After one week acclimatisation, male Sprague-Dawley rats were surgically prepared with a jugular cannula and were housed individually, as required, either in pre-assigned housing cages or metabolic cages. Colistin and the Example Compounds were prepared in saline.
Compounds were introduced via the jugular cannula twice a day 7 hours apart for seven days. Each dose was increased progressively for three days up to the top dose that was then administered until termination of the study. Twenty-four hour urine collection (on ice) was performed at pre-dose and on days 4 and 7. The dose regimen is set out in Table 10 below.
The doses in the table are indicated in mg drug base/kg (free base).
The activity in urine of the N-acetyl-beta-D-glucosaminidase (NAG) was determined spectrophotometrically using the NAG assay kit from Roche Applied Science. Biomarkers of kidney injury were determined using the Kidney Injury Panel II from the Multi-Spot® Assay System (Meso Scale Discovery).

[3] = tested on: HK-2 cell line; experiment: In vitro renal cell toxicity assay (resazurin reduction); format: cell-based, human; conditions: HK-2 cells, 24 h, resazurin reduction; mean values of up to 6 independent studies
[4] = tested on: E. coli ATCC25922
Method: Mice were rendered temporarily neutropenic by immunosuppression with cyclophosphamide at 150 mg/kg 4 days before infection and 100 mg/kg 1 day before infection by intraperitoneal injection.
Compounds were administered in solution by intravenous (IV) injection into the lateral tail vein. […] The vehicle control group was treated with vehicle (0.9% saline for injection) also at 10 mL/kg IV thrice at 1, 3.5 and 6 hours post infection.
(§1) At 1 hour post infection, 4 animals were humanely euthanized using pentabarbitone overdose to provide a pre-treatment control group. At 9 hours post infection, the clinical condition of all animals was assessed prior to them being humanely euthanized by pentabarbitone overdose. Animal weight was determined before both thighs were removed and weighed individually. Individual thigh tissue samples were homogenized in ice cold sterile phosphate buffered saline. Thigh homogenates were then quantitatively cultured onto CLED agar and incubated at 37° C. for 24 hours before colonies were counted.

[5] = tested on: P. aeruginosa ATCC27853; format: in vivo, Pseudomonas aeruginosa; conditions: 1:1 with rifampicin at a total dose of 5 mg/kg, IV at 1, 3.5 and 6 hours
Method: as §1, with “Compounds were administered in solution by intravenous (IV) bolus injection into the lateral tail vein. […] At 1” for “At 1”

[6] = tested on: P. aeruginosa ATCC 27853

CC(C)C[C@@H]1NC(=O)[C@@H](Cc2ccccc2)NC(=O)[C@H](CCN)NC(=O)[C@@H](NC(=O)[C@H](CCN)NC(=O)[C@@H](NC(=O)CC(N)C2CCCCC2)C(C)O)CCNC(=O)[C@H](C(C)O)NC(=O)[C@H](CCN)NC(=O)[C@H](CCN)NC1=O (stereo partly drawn) [Example 10, [3(R,S)-3-Amino-3-cyclohexane-propanoyl]Polymyxin B nonapeptide] ({ξβ3hGly(cHex)}-[Thr(3ξ)][Dab][Dab][Dab][dF]L[Dab][Dab][Thr(3ξ)]; lactam 3-C)
reduction in bacterial counts [1]: approx. 2 log10
levels of the renal biomarkers NAG, albumin and cystatin C in urine [2]: significantly reduced levels

Polymyxin B [reference compound]
IC50 HK-2 cells [3]: 11^b μg/mL
log reduction in bacterial counts compared to the non-treated control ([4]; 1:1 combination with Rifampicin at 4 mg/Kg total dose): 4.8 log
Log reduction from vehicle (CFU/g) ([4]; Table 9, monotherapy 0.125 mg/kg IV at 1, 3.5 and 6 h post infection, 9 h): −0.36 log CFU/g
Log reduction from vehicle (CFU/g) ([4]; Table 9, monotherapy 0.5 mg/kg IV at 1, 3.5 and 6 h post infection, 9 h): 1.93 log CFU/g
Log reduction from vehicle (CFU/g) ([4]; Table 12, alone 4 mg/kg (sulfate salt) IV): 3.61 log CFU/g
log reduction in bacterial counts compared to non-treated control [5]: 5.37 log
Log reduction from vehicle (CFU/g) ([6]; Table 14, 1 mg/kg (sulfate salt) IV at 1, 3.5 and 6 h, 9 h): 0.58 log CFU/g
Log reduction from vehicle (CFU/g) ([6]; Table 14, 2 mg/kg (sulfate salt) IV at 1, 3.5 and 6 h, 9 h): 1.67 log CFU/g
Log reduction from vehicle (CFU/g) ([6]; Table 14, 4 mg/kg (sulfate salt) IV at 1, 3.5 and 6 h, 9 h): 5.09 log CFU/g
Log reduction from vehicle (CFU/g) ([6]; Table 15, 1 mg/kg (sulfate salt) IV, 9 h): −0.12 log CFU/g
Log reduction from vehicle (CFU/g) ([6]; Table 15, 2 mg/kg (sulfate salt) IV, 9 h): 1.40 log CFU/g
Log reduction from vehicle (CFU/g) ([6]; Table 15, 4 mg/kg (sulfate salt) IV, 9 h): 3.41 log CFU/g
Log reduction from vehicle (CFU/g) ([6]; Table 16, 0.85 mg/kg free base equivalent, infection level ~1×10^4 CFU/mouse thigh): 1.19 log CFU/g
Log reduction from vehicle (CFU/g) ([6]; Table 16, 3.4 mg/kg free base equivalent, infection level ~1×10^4 CFU/mouse thigh): 4.23 log CFU/g
